Assay results published in ChEMBL document CHEMBL3272190, “(2-exo-3-endo)-2-Aryltropane-3-carboxylic esters, a new class of narcotic antagonists” (J Med Chem, 1978).
Active and inactive are the calls of the source. The calls are words filed in the database; no cut-off is given here.

Experiments:
[1] = system: Mus musculus; assay: Antiwrithing activity in sc dosed mouse assessed as prevention of acetylcholine-induced abdominal constriction response; format: functional; conditions: Abdomen
[2] = system: Rattus norvegicus; assay: Narcotic analgesic activity in sc dosed rat assessed as inhibition of phenazocine-induced effect by D'Amour-Smith tail flick test; format: functional
[3] = system: Mus musculus; assay: Antiwrithing activity in mouse assessed as prevention of acetylcholine-induced abdominal constriction response at 15 mg/kg, sc; format: functional, Abdomen; conditions: route subcutaneous
[4] = system: Mus musculus; assay: Toxicity in mouse assessed as mortality at >15 mg/kg, sc; format: organism-based; conditions: in vivo
[5] = system: Mus musculus; assay: Induction of convulsion in mouse at 75 mg/kg, sc; format: organism-based; parameters: dose 75 mg/kg, route subcutaneous; conditions: in vivo
[6] = system: Mus musculus; assay: Induction of hyperactiveness in mouse at 30 mg/kg, sc; format: organism-based; parameters: dose 30 mg/kg, route subcutaneous; conditions: in vivo
[7] = system: Mus musculus; assay: Antiwrithing activity in po dosed mouse assessed as prevention of acetylcholine-induced abdominal constriction response; format: functional; conditions: Abdomen
[8] = system: Mus musculus; assay: Antiwrithing activity in sc dosed mouse assessed as prevention of phenyl-p-benzoquinone-induced abdominal constriction response; format: functional; conditions: Abdomen
[9] = system: Rattus norvegicus; assay: Narcotic analgesic activity in po dosed rat assessed as inhibition of phenazocine-induced effect by D'Amour-Smith tail flick test; format: functional
[10] = system: Rattus norvegicus; assay: Induction of tremors in rat at 120 mg/kg, sc; format: organism-based; parameters: dose 120 mg/kg, route subcutaneous; conditions: in vivo
[11] = system: Mus musculus; assay: Induction of hyperactiveness in mouse at 75 mg/kg, sc; format: organism-based; parameters: dose 75 mg/kg, route subcutaneous; conditions: in vivo
[12] = system: Rattus norvegicus; assay: Induction of hyperactiveness in rat at 120 mg/kg, sc; format: organism-based; parameters: dose 120 mg/kg, route subcutaneous; conditions: in vivo
[13] = system: Mus musculus; assay: Antiwrithing activity in po dosed mouse assessed as prevention of phenyl-p-benzoquinone-induced abdominal constriction response; format: functional; conditions: Abdomen
[14] = system: Rattus norvegicus; assay: Induction of depression in rat at 75 mg/kg, sc; format: organism-based; parameters: dose 75 mg/kg, route subcutaneous; conditions: in vivo
[15] = system: Mus musculus; assay: Analgesic activity in mouse assessed as inhibition of intraarterial bradykinin-induced effect at 50 mg/kg, sc; format: functional, organism-based; parameters: dose 50 mg/kg
[16] = system: Rattus norvegicus; assay: Induction of convulsion in rat at 120 mg/kg, sc; format: organism-based; parameters: dose 120 mg/kg, route subcutaneous; conditions: in vivo
[17] = system: Mus musculus; assay: Induction of sedation in mouse at 40 mg/kg, sc; format: organism-based; parameters: dose 40 mg/kg, route subcutaneous; conditions: in vivo
[18] = system: Rattus norvegicus; assay: Induction of hyperactiveness in rat at 200 mg/kg, po; format: organism-based; parameters: dose 200 mg/kg, route oral; conditions: in vivo
[19] = system: Rattus norvegicus; assay: Analgesic activity in rat assessed as inhibition of intraarterial bradykinin-induced effect up to 100 mg/kg, sc; format: functional; parameters: scale not given: the % may be the effect or the level left
[20] = system: Rattus norvegicus; assay: Narcotic analgesic activity in rat assessed as inhibition of phenazocine-induced effect at 10 mg, ip by D'Amour-Smith tail flick test; format: functional, organism-based
[21] = system: Rattus norvegicus; assay: Toxicity in rat assessed as mortality at >10 mg, ip; format: organism-based; conditions: in vivo
[22] = system: Mus musculus; assay: Induction of depression in mouse at 75 mg/kg, sc; format: organism-based; parameters: dose 75 mg/kg, route subcutaneous; conditions: in vivo
[23] = system: Rattus norvegicus; assay: Analgesic activity in rat assessed as inhibition of intraarterial bradykinin-induced effect at 10 mg/kg, sc; format: functional, organism-based; parameters: dose 10 mg/kg
[24] = system: Rattus norvegicus; assay: Narcotic analgesic activity in sc dosed rat assessed as inhibition of morphine-induced effect by D'Amour-Smith tail flick test; format: functional, organism-based
[25] = system: Rattus norvegicus; assay: Narcotic analgesic activity in po dosed rat assessed as inhibition of morphine-induced effect by D'Amour-Smith tail flick test; format: functional, organism-based
[26] = system: Rattus norvegicus; assay: Narcotic analgesic activity in sc dosed rat assessed as inhibition of meperidine-induced effect by D'Amour-Smith tail flick test; format: functional, organism-based
[27] = system: Rattus norvegicus; assay: Narcotic analgesic activity in po dosed rat assessed as inhibition of meperidine-induced effect by D'Amour-Smith tail flick test; format: functional, organism-based
[28] = system: Mus musculus; assay: Induction of hyperexcitable in mouse at 100 mg/kg, sc; format: organism-based; parameters: dose 100 mg/kg, route subcutaneous; conditions: in vivo
[29] = system: Mus musculus; assay: Induction of tremors in mouse at 35 mg/kg, sc; format: organism-based; parameters: dose 35 mg/kg, route subcutaneous; conditions: in vivo
[30] = system: Mus musculus; assay: Induction of depression in mouse at 35 mg/kg, sc; format: organism-based; parameters: dose 35 mg/kg, route subcutaneous; conditions: in vivo
[31] = system: Mus musculus; assay: Antiwrithing activity in mouse assessed as prevention of acetylcholine-induced abdominal constriction response at 100 mg/kg, sc; format: functional, Abdomen; conditions: route subcutaneous
[32] = system: Mus musculus; assay: Antiwrithing activity in mouse assessed as prevention of acetylcholine-induced abdominal constriction response at 25 mg/kg, sc; format: functional, Abdomen; conditions: route subcutaneous
[33] = system: Rattus norvegicus; assay: Induction of rigidity in rat at 120 mg/kg, sc; format: organism-based; parameters: dose 120 mg/kg, route subcutaneous; conditions: in vivo

SMILES: COC(=O)[C@H]1C[C@H]2CC[C@H]([C@H]1c1ccccc1)N2CC1CC1 (racemic)
- ED50 [1]: 10 mg/kg
- AD50 [2]: 10 mg/kg
- Activity [3]: 67%
- Activity [4]: Toxic
- Activity [5]: Toxic
- Activity [6]: Toxic

SMILES: COC(=O)[C@@H]1C[C@H]2CC[C@H]([C@H]1c1ccccc1)N2Cc1ccccc1 (racemic)
- ED50 [1]: > 75 mg/kg
- ED50 [7]: 21 mg/kg
- AD50 [2]: >80 mg/kg

SMILES: COC(=O)[C@H]1C[C@H]2CC[C@H]([C@H]1c1cccc(O)c1)N2C (racemic)
- ED50 [1]: 16 mg/kg
- ED50 [8]: 75 mg/kg
- AD50 [2]: 0.37 mg/kg
- AD50 [9]: 1.8 mg/kg
- Activity [10]: Toxic
- Activity [11]: Toxic
- Activity [12]: Toxic

SMILES: COC(=O)[C@H]1C[C@H]2CC[C@@H](N2)[C@H]1c1ccccc1 (racemic)
- ED50 [1]: 3.4 mg/kg
- ED50 [7]: 8.4 mg/kg
- ED50 [8]: 22 mg/kg
- ED50 [13]: 100 mg/kg
- AD50 [2]: 2.1 mg/kg
- AD50 [9]: 4.1 mg/kg
- Activity [10]: Toxic
- Activity [14]: Toxic
- Activity [15]: Active

SMILES: COC(=O)[C@H]1C[C@H]2CC[C@H]([C@H]1c1ccccc1)N2C
- AD50 [2]: >80 mg/kg

SMILES: COC(=O)[C@H]1CCN(C)C[C@@H]1c1cccs1 (relative stereo)
- AD50 [2]: 5.6 mg/kg

SMILES: COC(=O)[C@H]1C[C@H]2CCC(N2)[C@H]1c1cccc(O)c1 (mixture of isomers)
- AD50 [2]: 2 mg/kg

SMILES: COC(=O)[C@@H]1CCN(C)C[C@@H]1c1cccs1 (relative stereo)
- AD50 [2]: 49 mg/kg

SMILES: COC(=O)[C@H]1C[C@H]2CC[C@H]([C@H]1c1ccc(O)cc1)N2C (racemic)
- ED50 [1]: 7.1 mg/kg
- AD50 [2]: >80 mg/kg
- Activity [6]: Toxic

SMILES: COC(=O)[C@@H]1C[C@H]2CC[C@H]([C@H]1Cc1ccccc1)N2C (racemic)
- ED50 [1]: 5.8 mg/kg
- AD50 [2]: >80 mg/kg
- Activity [16]: Toxic
- Activity [11]: Toxic

SMILES: COC(=O)[C@H]1C[C@H]2CC[C@@H](N2)[C@H]1c1cccc(O)c1
- ED50 [1]: 60 mg/kg
- AD50 [2]: >80 mg/kg

SMILES: C=CCN1CC[C@]23c4c5ccc(O)c4O[C@H]2C(=O)CC[C@@]3(O)[C@H]1C5 [NALOXONE]
- ED50 [1]: 60 mg/kg
- ED50 [8]: 103 mg/kg
- AD50 [2]: 0.008 mg/kg

SMILES: COC(=O)[C@@H]1C[C@H]2CCC([C@H]1c1ccccc1)N2C (mixture of isomers)
- ED50 [1]: 12 mg/kg
- ED50 [8]: 17 mg/kg
- AD50 [2]: >80 mg/kg
- Activity [10]: Toxic
- Activity [17]: Toxic

SMILES: COC(=O)[C@H]1C[C@H]2CC[C@H]([C@H]1c1ccc[nH]1)N2C (racemic)
- ED50 [7]: 34 mg/kg
- AD50 [2]: >80 mg/kg
- Activity [18]: Toxic

SMILES: COC(=O)[C@@H]1C[C@H]2CC[C@H]([C@H]1c1cccc(O)c1)N2C (racemic)
- ED50 [1]: 24 mg/kg
- ED50 [8]: 100 mg/kg
- AD50 [2]: >80 mg/kg
- Activity ([19]; route subcutaneous): 0%

SMILES: COC(=O)[C@H]1CCN(C)C[C@H]1c1ccccc1 (relative stereo)
- ED50 [1]: 16 mg/kg
- Activity [20]: inactive
- Activity [21]: Toxic
- Activity [22]: Toxic

SMILES: COC(=O)[C@@H]1C[C@H]2CC[C@H]([C@H]1c1ccc[nH]1)N2C (racemic)
- ED50 [1]: 13 mg/kg
- ED50 [7]: 42 mg/kg
- AD50 [2]: 56 mg/kg
- Activity [23]: inactive

SMILES: C=CCN1CC[C@]23c4c5ccc(O)c4O[C@H]2[C@@H](O)C=C[C@H]3[C@H]1C5 [NALORPHINE]
- ED50 [8]: 15 mg/kg
- AD50 [2]: 0.1 mg/kg
- AD50 [9]: 6 mg/kg

SMILES: COC(=O)[C@H]1C[C@H]2CCC([C@H]1c1ccccc1)N2C (mixture of isomers)
- ED50 [1]: 12 mg/kg
- ED50 [7]: 16 mg/kg
- ED50 [8]: 43 mg/kg
- ED50 [13]: > 200 mg/kg
- AD50 [2]: 5.5 mg/kg
- AD50 [9]: 1.1 mg/kg
- Activity [24]: inactive
- Activity [25]: inactive
- Activity [26]: inactive
- Activity [27]: inactive
- Activity [19]: inactive
- Activity [17]: Toxic
- Activity [28]: Toxic
- Activity [16]: Toxic

SMILES: COC(=O)C1C[C@H]2CC[C@H]([C@H]1c1cccs1)N2C (mixture of isomers)
- ED50 [1]: 13 mg/kg
- ED50 [8]: 60 mg/kg
- AD50 [2]: 4.9 mg/kg
- Activity [22]: Toxic

SMILES: COC(=O)[C@H]1C[C@H]2CC[C@H]([C@H]1c1cccc(OC)c1)N2C (racemic)
- ED50 [1]: 19 mg/kg
- AD50 [2]: >80 mg/kg
- Activity [29]: Toxic
- Activity [30]: Toxic

SMILES: CN1[C@@H]2CC[C@@H]1[C@@H](c1ccccc1)[C@@H](C(=O)O)C2 (racemic)
- AD50 [2]: >80 mg/kg

SMILES: CCOC(=O)C1(c2ccccc2)CCN(C)CC1 [MEPERIDINE]
- AD50 [2]: 19 mg/kg
- AD50 [9]: 25 mg/kg

SMILES: COC(=O)[C@H]1C[C@H]2CC[C@@H]([C@H]1c1ccccc1)N2C
- AD50 [2]: 3.3 mg/kg

SMILES: COC(=O)[C@H]1CCN(C)C[C@@H]1c1ccccc1 (relative stereo)
- ED50 [1]: 16 mg/kg
- Activity [20]: inactive
- Activity [21]: Toxic
- Activity [22]: Toxic

SMILES: COC(=O)[C@H]1C[C@H]2CC[C@@H]3[C@H]1c1cccc(O)c1CN23
- AD50 [2]: 2 mg/kg

SMILES: COC(=O)[C@H]1C[C@H]2CC[C@H](N2)[C@H]1c1cccc(O)c1
- ED50 [1]: 60 mg/kg
- AD50 [2]: 0.3 mg/kg
- AD50 [9]: 14 mg/kg

SMILES: CC(C)OC(=O)[C@H]1C[C@H]2CC[C@H]([C@H]1c1ccccc1)N2C (racemic)
- ED50 [1]: 16 mg/kg
- AD50 [2]: >80 mg/kg
- Activity [16]: Toxic
- Activity [6]: Toxic

SMILES: CN1CC[C@]23c4c5ccc(O)c4O[C@H]2[C@@H](O)C=C[C@H]3[C@H]1C5 [MORPHINE]
- AD50 [2]: 29 mg/kg
- AD50 [9]: 13 mg/kg

SMILES: COC(=O)[C@H]1C[C@H]2CC[C@@H]3[C@H]1c1cc(O)ccc1CN23
- AD50 [2]: 1.45 mg/kg
- Activity [31]: 100%
- Activity [32]: 0%
- Activity [22]: Toxic

SMILES: COC(=O)[C@@H]1C[C@H]2CC[C@H]([C@H]1c1cccs1)N2C (racemic)
- ED50 [1]: 12 mg/kg
- ED50 [7]: 35 mg/kg
- AD50 [2]: >80 mg/kg
- Activity [19]: Active
- Activity [10]: Toxic
- Activity [16]: Toxic
- Activity [33]: Toxic
